Like-named read-outs stand apart in the source and are kept apart here. *1 amine or outer side, *2 acyl side, *3 side chain or, on linkers, in order; H or OH if unused. Where a SMILES comes first, the peptide text is derived from it. Bridges are numbered along the chain shown (N, C = ends). [ ]: non-standard residue; d: D form. The star is where a group is joined. X1 = CCc1c2c(nc3ccc(O)cc13)-c1cc3c(c(=O)n1C2)COC(=O)[C@@]3(CC)OC(=O)CCCCn1cc(CCCC(=O)NCCCOCCOCCOCCCN*)nn1; Suc = O=C(CCC(=O)[*:2])[*:1]; Dap = NC[C@H](N)C(=O)O
What was measured:
Format in all cases: cell-based
[1] = test system: neuroblastoma cell line LAN-1; experiment: MTS cell viability assay, neuroblastoma cell line LAN-1; details: Example 9, Table 3, read-out: IC50 values against cancer cell lines
Text: (§1) Cancer cell lines were obtained from the repository maintained at Hospital Sant Joan de Deu (Barcelona, Spain). Cancer cell lines used in these experiment included cancer types of adult glioma (U373 and U87 cell lines), pediatric gliomas including diffuse intrinsic pontine glioma (HSJD-DIPG-007, HSJD-DIPG-011), and pediatric high-grade glioma (HSJD-GBM-001), retinoblastoma (HSJD-RBT-5, HSJD-RBT-7 and HSJD-RBT-14), Ewing sarcoma (A673), rhabdomyosarcoma (Rd and RH4) and neuroblastoma (LAN-1 and SK-N-JD cell lines and HSJD-NB-004, HSJD-NB-005 and HSJD-NB-016 patient-derived cell models). […] To add the drugs to the cells in culture, SN38-linker A-MiniAp4 (Ia) and irinotecan were prepared in culture medium from stock solutions at concentration 1 mg/mL in water. SN38 was prepared in culture medium from a stock solution at concentration 1 mg/mL in DMSO. […] Activity curves were built for adult glioma cell lines U87 (FIG. 1) and U373 (FIG. 2), pediatric gliomas including DIPG models HSJD-DIPG-007 (FIG. 3) and HSJD-DIPG-011 (FIG. 4), and pediatric high-grade glioma model HSJD-GBM-001 (FIG. 5), retinoblastoma models HSJD-RBT-5 (FIG. 6), HSJD-RBT-7 (FIG. 7) and HSJD-RBT-14 (FIG. 8), Ewing sarcoma cell line A673 (FIG. 9), rhabdomyosarcoma cell lines Rd (FIG. 10) and RH4 (FIG. 11), neuroblastoma cell lines LAN-1 (FIG. 12) and SK-N-JD (FIG. 13) and neuroblastoma patient-derived cell models HSJD-NB-004 (FIG. 14), HSJD-NB-005 (FIG. 15) and HSJD-NB-016 (FIG. 16). The established IC50 values are in Table 3.

[2] = test system: pediatric high-grade glioma HSJD-GBM-001; experiment: cells; details: MTS, 72 h incubation
Text: Cancer cell lines were obtained from the repository maintained at Hospital Sant Joan de Deu (Barcelona, Spain). Cancer cell lines used in these experiment included cancer types of adult glioma (U373 and U87 cell lines), pediatric gliomas including diffuse intrinsic pontine glioma (HSJD-DIPG-007, HSJD-DIPG-011), and pediatric high-grade glioma (HSJD-GBM-001), retinoblastoma (HSJD-RBT-5, HSJD-RBT-7 and HSJD-RBT-14), Ewing sarcoma (A673), rhabdomyosarcoma (Rd and RH4) and neuroblastoma (LAN-1 and SK-N-JD cell lines and HSJD-NB-004, HSJD-NB-005 and HSJD-NB-016 patient-derived cell models). Briefly, between 3000 and 30,000 cancer cells were cultured in 96 well plates and 24 h later the cells were exposed to compound SN38-linker A-MiniAp4 (Ia) (concentration range 1-0.00000001 μM), SN38 (concentration range 1-0.00000001 μM), or irinotecan (concentration range 100-0,000001 μM). To add the drugs to the cells in culture, SN38-linker A-MiniAp4 (Ia) and irinotecan were prepared in culture medium from stock solutions at concentration 1 mg/mL in water. SN38 was prepared in culture medium from a stock solution at concentration 1 mg/mL in DMSO. The tetrazolium compound [3-(4,5-dimethylthiazol-2-yl)-5-(3-carboxymethoxyphenyl)-2-(4-sulfophenyl)-2H-tetrazolium] (MTS assay; Promega, Fitchburg, WI) was used to determine cell viability after 72 h incubation with the drugs. The concentrations of drug required to cause a reduction of 50% in cell proliferation (IC50 and 95% confidence intervals) were calculated with Graphpad Prism 8 software (La Jolla, CA). Activity curves were built for adult glioma cell lines U87 (FIG. 1) and U373 (FIG. 2), pediatric gliomas including DIPG models HSJD-DIPG-007 (FIG. 3) and HSJD-DIPG-011 (FIG. 4), and pediatric high-grade glioma model HSJD-GBM-001 (FIG. 5), retinoblastoma models HSJD-RBT-5 (FIG. 6), HSJD-RBT-7 (FIG. 7) and HSJD-RBT-14 (FIG. 8), Ewing sarcoma cell line A673 (FIG. 9), rhabdomyosarcoma cell lines Rd (FIG. 10) and RH4 (FIG. 11), neuroblastoma cell lines LAN-1 (FIG. 12) and SK-N-JD (FIG. 13) and neuroblastoma patient-derived cell models HSJD-NB-004 (FIG. 14), HSJD-NB-005 (FIG. 15) and HSJD-NB-016 (FIG. 16). The established IC50 values are in Table 3.
The present inventors compared the activity of the new compound SN38 conjugated with MiniAp4 (SN38-linkerA-MiniAp4, example 7 also named G2B-001) and with SN38-linker B-THRre (comparative example 2). Original compound SN38 was used as reference. Cancer cell lines used in these experiments were pediatric gliomas including diffuse intrinsic pontine glioma HSJD-DIPG-007, and pediatric high-grade glioma HSJD-GBM-001. Briefly, 3000 cancer cells were cultured in 96 well plates and 24 h later the cells were exposed to compound compound (Ia) (concentration range 1-0.00000001 μM), SN38-Linker B-THRre (concentration range 1-0.00000001 μM), and SN38 (concentration range 1-0.00000001 μM). To add the drugs to the cells in culture, SN38-Linker A-MiniAp4 (Ia) and SN38-Linker B-THRre were prepared in culture medium from stock solutions at concentration 1 mg/mL in water. SN38 was prepared in culture medium from a stock solution at concentration 1 mg/mL in DMSO. The MTS assay was used to determine cell viability after 72 h incubation with the drugs. The concentrations of drug required to cause a reduction of 50% in cell proliferation (IC50 and 95% confidence intervals) were calculated with Graphpad Prism 8 software (La Jolla, CA). Activity curves were built for cells HSJD-DIPG-007 (FIG. 20) and HSJD-GBM-001 (FIG. 21). The established IC50 values are in Table 4.
Cancer cell lines used in these experiments were pediatric gliomas including diffuse intrinsic pontine glioma HSJD-DIPG-007, and pediatric high-grade glioma HSJD-GBM-001. Briefly, 3000 cancer cells were cultured in 96 well plates and 24 h later the cells were exposed to compounds (Ia), comparative example 1 and comparative example 2 (concentration range 1-0.001 μM for each of them). […]

[3] = test system: retinoblastoma cell model HSJD-RBT-5; experiment: MTS cell viability assay, retinoblastoma model HSJD-RBT-5; details: 72 h incubation, Example 9, Table 3, read-out: IC50 values against cancer cell lines
Text: as §1

[4] = Example 9, Table 3, read-out: IC50 values against cancer cell lines
[5] = Example 11, Table 4, read-out: IC50 values of compounds

IC50 ([1]; LAN1, 72 h incubation)	IC50 [2, 4]	IC50 [3]	SMILES	IC50 [2, 5]	IC50 ([1]; 72 h incubation)	IC50 ([2]; Example 12, Table 5, read-out: IC50 values (μM) against cancer cell lines)
7 µM	9.57 µM	0.911 µM	CCc1c2c(nc3ccc(OC(=O)N4CCC(N5CCCCC5)CC4)cc13)-c1cc3c(c(=O)n1C2)COC(=O)[C@]3(O)CC [Irinotecan]			
0.00196 µM	0.00261 µM	0.0103 µM	CCc1c2c(nc3ccc(O)cc13)-c1cc3c(c(=O)n1C2)COC(=O)[C@]3(O)CC [SN38, 7-ethyl-10-hydroxy-camptothecin]	0.00631 µM		

SMILES	IC50 ([1]; LAN1, 72 h incubation)	IC50 [2, 4]	IC50 [3]	IC50 [2, 5]	IC50 ([1]; 72 h incubation)	IC50 ([2]; Example 12, Table 5, read-out: IC50 values (μM) against cancer cell lines)
CCc1c2c(nc3ccc(O)cc13)-c1cc3c(c(=O)n1C2)COC(=O)[C@@]3(CC)OC(=O)CCCCn1cc(CCCC(=O)NCCCOCCOCCOCCCNC(=O)CCC(=O)N[C@H]2CNC(=O)C[C@@H](C(N)=O)NC(=O)[C@H](CC(C)C)NC(=O)[C@H](C)NC(=O)[C@H]([C@@H](C)O)NC(=O)[C@H](CCC(=O)O)NC(=O)[C@@H]3CCCN3C(=O)[C@H](C)NC(=O)[C@H](CCCCN)NC2=O)nn1 [SN38-linker A-MiniAp4 (Ia)] ({X1-Suc}-[Dap]KAPETALD-NH2; lactam 1-9)		0.0703 µM	0.0921 µM	0.00639 µM	0.0216 µM	0.0216 µM
